From patent US8962843B2, “1,3,4-oxadiazole and 1,3,4-thiadiazole beta-lactamase inhibitors” (priority 2012, dated 2015) come the findings set out here.

The structures appear in SMILES notation. Structures can show the parent of a compound that is named as a salt.

The test system of assay [1] is bacterial strains that express KPC β-lactamases. Description: Standard BLI potentiation MIC / synergy MIC assays, strains expressing KPC β-lactamases. It counts as cell-based. To be noted: in combination with a β-lactam; comparator Avibactam. Put shortly: (§1)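 Broth microdilution in cation-adjusted Mueller Hinton broth per CLSI M07-A9, ~10^5 CFU/mL, 18-20 h at 37 °C with aeration; engineered E. coli carrying β-lactamase plasmids kept on 25 μg/mL tetracycline. β-lactam MIC measured in 2-fold dilutions (128-0.13 μg/mL) with BLI fixed at 4 μg/mL; sMIC titrates BLI against a fixed β-lactam concentration. MIC = lowest concentration without visible turbidity.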

Assay [2] has as its system bacterial strains that express the class D cephalosporinase OXA-15. Description: Standard BLI potentiation MIC / synergy MIC assays, strains expressing OXA-15. It counts as cell-based, E. coli. Particulars: in combination with a β-lactam; comparator Avibactam (CCC). The procedure, abridged: as §1

On to `O=C1N2C[C@@H](CC[C@H]2c2nnc(COC3CNC3)o2)N1OS(=O)(=O)O` [Compound 744, (2S,5R)-2-(5-((azetidin-3-yloxy)methyl)-1,3,4-oxadiazol-2-yl)-7-oxo-1,6-diazabicyclo[3.2.1]octan-6-yl hydrogen sulfate], for which the “activity and/or spectrum of activity against bacterial strains that express KPC β-lactamases, compared with Avibactam” value in assay [1] is listed as “more active than Avibactam for at least one, bacterial strain that expresses KPC β-lactamase and/or show a better spectrum of activity”. Further, in assay [2], the “activity against bacterial strains that express the class D cephalosporinase OXA-15, compared with Avibactam” value is given as “more active than Avibactam”.

Take `O=C1N2C[C@@H](CC[C@H]2c2nnc(CCNC3CNC3)o2)N1OS(=O)(=O)O` [Compound 745, (2S,5R)-2-(5-(2-(azetidin-3-ylamino)ethyl)-1,3,4-oxadiazol-2-yl)-7-oxo-1,6-diazabicyclo[3.2.1]octan-6-yl hydrogen sulfate]: the “activity and/or spectrum of activity against bacterial strains that express KPC β-lactamases, compared with Avibactam” value in assay [1] was “more active than Avibactam for at least one, bacterial strain that expresses KPC β-lactamase and/or show a better spectrum of activity”. Also, the “activity against bacterial strains that express the class D cephalosporinase OXA-15, compared with Avibactam” value in assay [2] is “more active than Avibactam”.

On to `N=C(N)N1CC(NCc2nnc([C@@H]3CC[C@@H]4CN3C(=O)N4OS(=O)(=O)O)o2)C1` [Compound 746, (2S,5R)-2-(5-(((1-carbamimidoylazetidin-3-yl)amino)methyl)-1,3,4-oxadiazol-2-yl)-7-oxo-1,6-diazabicyclo[3.2.1]octan-6-yl hydrogen sulfate], for which, in assay [1], the “activity and/or spectrum of activity against bacterial strains that express KPC β-lactamases, compared with Avibactam” value is recorded as “more active than Avibactam for at least one, bacterial strain that expresses KPC β-lactamase and/or show a better spectrum of activity”. The “activity against bacterial strains that express the class D cephalosporinase OXA-15, compared with Avibactam” value in assay [2] is on record as “more active than Avibactam”.

As to `N=C(N)N[C@H]1C[C@@H](c2nnc([C@@H]3CC[C@@H]4CN3C(=O)N4OS(=O)(=O)O)o2)C1` [Compound 749, (2S,5R)-2-(5-((1s,3R)-3-guanidinocyclobutyl)-1,3,4-oxadiazol-2-yl)-7-oxo-1,6-diazabicyclo[3.2.1]octan-6-yl hydrogen sulfate], the “activity and/or spectrum of activity against bacterial strains that express KPC β-lactamases, compared with Avibactam” value in assay [1] was “more active than Avibactam for at least one, bacterial strain that expresses KPC β-lactamase and/or show a better spectrum of activity”. Moreover, in assay [2], the “activity against bacterial strains that express the class D cephalosporinase OXA-15, compared with Avibactam” value is “more active than Avibactam”.

On to `O=C1N2C[C@@H](CC[C@H]2c2nnc(C3CC4(CNC4)C3)o2)N1OS(=O)(=O)O` [Compound 750, (2S,5R)-2-(5-(2-azaspiro[3.3]heptan-6-yl)-1,3,4-oxadiazol-2-yl)-7-oxo-1,6-diazabicyclo[3.2.1]octan-6-yl hydrogen sulfate], for which the “activity and/or spectrum of activity against bacterial strains that express KPC β-lactamases, compared with Avibactam” value in assay [1] was “more active than Avibactam for at least one, bacterial strain that expresses KPC β-lactamase and/or show a better spectrum of activity”. The “activity against bacterial strains that express the class D cephalosporinase OXA-15, compared with Avibactam” value in assay [2] is “more active than Avibactam”.

Consider `N[C@H]1C[C@H](Cc2nnc([C@@H]3CC[C@@H]4CN3C(=O)N4OS(=O)(=O)O)o2)C1` [Compound 751, (2S,5R)-2-(5-(((1r,3S)-3-aminocyclobutyl)methyl)-1,3,4-oxadiazol-2-yl)-7-oxo-1,6-diazabicyclo[3.2.1]octan-6-yl hydrogen sulfate], for which the “activity and/or spectrum of activity against bacterial strains that express KPC β-lactamases, compared with Avibactam” value in assay [1] is given as “more active than Avibactam for at least one, bacterial strain that expresses KPC β-lactamase and/or show a better spectrum of activity”. Also, the “activity against bacterial strains that express the class D cephalosporinase OXA-15, compared with Avibactam” value in assay [2] is on record as “more active than Avibactam”.
